Laboratory results: patent publication US9877980B2, “Method and composition for treatment or prevention of type 2 diabetes and hyperlipidemia” (Chun-Ching Shih, priority 2016, dated 2018)

Columns and labels:
Type in all cases: in vivo
Conditions in all cases: HFD mice, 4 weeks, vs HF group
[1] = test system: G6Pase; assay: Semi-quantitative RT-PCR of liver mRNA: G6Pase
Experimental: (§1) The following experiment was performed and approved by the guidelines of the Institutional Animal Care and Use Committee of Central Taiwan University of Science and Technology. The 4-week old male C57BL/6J mice (total amount n=63) were purchased from the National Laboratory Animal Breeding and Research Center (Taipei, Taiwan). After acclimatization for one week, all of the mice were divided randomly into the control (CON) group and the high-fat diet (HFD) group. […] After HFD exposure for 8 weeks, the HFD group was further randomly subdivided into 6 groups (n=9 per group) to receive different treatments by oral gavage once daily for four weeks and on HFD. […] The HF+B1, HF+B2, and […] are collectively termed BB-treated HFD groups in the following examples. The CON mice were administered vehicle. After dosing for 4 weeks, the mice were given no food at night and sacrificed after 12 h of fasting on the next day. All of the individual tissues were collected and weighed, and portions were instantly frozen using liquid nitrogen and kept at −80° C. for subsequent target gene analysis. Blood samples (0.8 mL) were collected for analysis of blood parameters.
(§2) Total RNA from liver tissue of mice was isolated with a Trizol Reagent (Molecular Research Center, Inc., Cincinnati, Ohio, USA) according to the manufacturer's instructions. The integrity of the extracted total RNA was examined by 2% agarose gel electrophoresis, and the RNA concentration was determined by the ultraviolet (UV) light absorbency at 260 nm and 280 nm (Spectrophotometer U-2800A, Hitachi). The quality of the RNA was confirmed by ethidium bromide staining of 18S and 28S ribosomal RNA after electrophoresis on 2% agarose gel containing 6% formaldehyde.
(§3) Levels of mRNA of genes of interest were quantified by semi-quantitative reverse transcription polymerase chain reaction (RT-PCR). […] PCR products were analyzed by 2% agarose gels and stained with ethidium bromide.

[2] = test system: 11β-HSD1; assay: Semi-quantitative RT-PCR of liver mRNA: 11β-HSD1
Experimental: as §1, §2, §3

[3] = test system: Akt; assay: Western blotting of phospho-Akt/total Akt in skeletal muscle and liver
Experimental: The following experiment was performed and approved by the guidelines of the Institutional Animal Care and Use Committee of Central Taiwan University of Science and Technology. The 4-week old male C57BL/6J mice (total amount n=63) were purchased from the National Laboratory Animal Breeding and Research Center (Taipei, Taiwan). After acclimatization for one week, all of the mice were divided randomly into the control (CON) group and the high-fat diet (HFD) group. For the following 12 weeks, the CON group (n=9) was kept on a low-fat diet (Diet 12450B, Research Diets, Inc., New Brunswick, N.J., USA), while the HFD group (n=54) was exposed to a high-fat diet (Diet 12451, Research Diets, New Brunswick, N.J., USA). The low-fat diet was composed of protein 20%, carbohydrate 70% and fat 10%, whereas the high-fat diet was composed of protein 20%, carbohydrate 35%, and fat 45% (of total energy, % kcal). After HFD exposure for 8 weeks, the HFD group was further randomly subdivided into 6 groups (n=9 per group) to receive different treatments by oral gavage once daily for four weeks and on HFD. […] The HF+B1, HF+B2, and […] are collectively termed BB-treated HFD groups in the following examples. The CON mice were administered vehicle. After dosing for 4 weeks, the mice were given no food at night and sacrificed after 12 h of fasting on the next day. All of the individual tissues were collected and weighed, and portions were instantly frozen using liquid nitrogen and kept at −80° C. for subsequent target gene analysis. Blood samples (0.8 mL) were collected for analysis of blood parameters.
Protein extractions and immunoblots for the determination of phospho-AMPK (Thr^172) and phospho-Akt (Ser^473) proteins in skeletal muscle and liver tissue of mice (n=9) were carried out. About 0.1 g of liver tissue and skeletal muscle was used for the homogenate samples. Samples were powdered under liquid nitrogen and homogenized for 20 seconds in 500 μL buffer containing 20 mM Tris-HCL1 (pH 7.4 at 4° C.), 2% SDS, 5 mM EDTA, 5 mM EGTA, 1 mM DTT, 100 mM NaF, 2 mM sodium vanadate, 0.5 mM phenylmethylsulfonyl fluoride, 10 μg/mL leupeptin, and […] pepstatin. The protein concentration in supernatant was determined with a BCA protein assay kit (Thermo Scientific, Rockford, Ill., USA). 20 μg of proteins were separated by electrophoresis on a polyacrylamide gel 12% (SDS-PAGE) and transferred to a nitrocellulose membrane. The membranes were blocked with 5% slim milk in Tris-buffered saline (TBS)(Amersham BioSciences, Uppsala, Sweden) containing 0.05% Tween-20 (Bio Rad, CA, USA) and incubated overnight at 4° C. with anti-phospho-AMPK (Abcam Inc., Cambridge, Mass., USA) and anti-phospho-Akt (Cell signaling Technology, Inc., Danvers, Mass., USA) rabbit polyclonal antibodies at 1:200 dilution. Subsequently, the membranes were washed three times with TBS containing 0.05% Tween-20 and incubated with secondary antibody anti-rabbit (1:1000) (Jackson ImmunoResearch Laboratories, Inc., PA, USA) for 1 hour. Immunoreactive bands were detected with ECL reagent kit (GE Healthcare BioSciences, Buckinghamshire, UK). The intensity of blotting was analyzed using Alpha Easy FC software (Alpha Innotech Corporation, Randburg, South Africa). Structural proteins GAPDH (Santa Cruz Biotechnology, CA, USA) in the samples were used as the loading control.

With `OCC1O[C@@H](O[C@@H]2Cc3c(O)cc(O)cc3O[C@@H]2c2ccc(O)c(O)c2)C(O)C(O)[C@@H]1O` (single isomer, unassigned; (-)) [compound of formula I, (−)-epicatechin-3-O-β-D-allopyranoside] the “liver mRNA level of G6Pase” value ([1]; 10 mg/kg/day oral gavage) was “significantly reduced”, the “liver mRNA level of G6Pase” value ([1]; 20 mg/kg/day oral gavage) was “significantly reduced” and the “liver mRNA level of G6Pase” value ([1]; 40 mg/kg/day oral gavage) was “significantly reduced”. The “liver mRNA level of 11β-HSD1” value ([2]; 10 mg/kg/day oral gavage) was “significantly reduced”, the “liver mRNA level of 11β-HSD1” value ([2]; 20 mg/kg/day oral gavage) was “significantly reduced” and the “liver mRNA level of 11β-HSD1” value ([2]; 40 mg/kg/day oral gavage) was “significantly reduced”. The “expression level of phospho-Akt/total Akt” value ([3]; liver, 10 mg/kg/day oral gavage) was “increased”, the “expression level of phospho-Akt/total Akt” value ([3]; liver, 20 mg/kg/day oral gavage) was “increased” and the “expression level of phospho-Akt/total Akt” value ([3]; liver, 40 mg/kg/day oral gavage) was “increased”. For the same compound, the “expression level of phospho-Akt/total Akt” value ([3]; skeletal muscle, 10 mg/kg/day oral gavage) was “increased”, the “expression level of phospho-Akt/total Akt” value ([3]; skeletal muscle, 20 mg/kg/day oral gavage) was “increased” and the “expression level of phospho-Akt/total Akt” value ([3]; skeletal muscle, 40 mg/kg/day oral gavage) was “increased”.
